Tests used:
Experiment in all cases: combination Emax (second highest fraction inhibited in the dose matrix, 72 h); higher = more inhibition; extreme values may be limits of the assay
D-392MG (Glioblastoma) = tested on: D-392MG (Glioblastoma)
In short: (§1)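 After 24 hours at 37°C and 5% CO2 in 1536-well plates, cells in DMEM/F12 or RPMI plus 10% FBS received two-drug dose matrices for 72 hours. Viability came from CellTiter-Glo 2.0 luminescence and was scaled as inhibition, anchored at 0 by vehicle wells and at 1 by blank wells. Combination Emax is taken as the second-highest inhibition in the matrix, and Bliss excess as the observed combination effect less EA + EB − EA·EB, with EA and EB the single-agent effects.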

[1] = tested on: DOK (Oral Cavity Carcinoma)
In short: as §1

[2] = tested on: EFM-192A (Breast Carcinoma)
In short: as §1

[3] = tested on: HCC-827 (Lung Adenocarcinoma)
In short: as §1

[4] = tested on: HCC1143 (Breast Carcinoma)
In short: as §1

HCC38 (Breast Carcinoma) = tested on: HCC38 (Breast Carcinoma)
In short: as §1

[5] = tested on: HCT-116 (Colorectal Carcinoma)
In short: as §1

[6] = tested on: JHH-6 (Hepatocellular Carcinoma)
In short: as §1

[7] = tested on: MEG-01 (Chronic Myelogenous Leukemia)
In short: as §1

[8] = tested on: MES-SA (Other Solid Carcinomas)
In short: as §1

[9] = tested on: NOMO-1 (Acute Myeloid Leukemia)
In short: as §1

[10] = tested on: P31-FUJ (Acute Myeloid Leukemia)
In short: as §1

[11] = tested on: PA-TU-8902 (Pancreatic Carcinoma)
In short: as §1

[12] = tested on: RCC10RGB (Kidney Carcinoma)
In short: as §1

[13] = tested on: SK-LMS-1 (Other Solid Carcinomas)
In short: as §1

[14] = tested on: SK-UT-1 (Other Solid Carcinomas)
In short: as §1

[15] = tested on: SKN-3 (Head and Neck Carcinoma)
In short: as §1

[16] = tested on: SNG-M (Endometrial Carcinoma)
In short: as §1

[17] = tested on: SW948 (Colorectal Carcinoma)
In short: as §1

[18] = tested on: WSU-DLCL2 (B-Cell Non-Hodgkin's Lymphoma)
In short: as §1

Structure (SMILES)	combination Emax (D-392MG (Glioblastoma))	combination Emax [1]	combination Emax [2]	combination Emax [3]	combination Emax [4]	combination Emax (HCC38 (Breast Carcinoma))	combination Emax [5]	combination Emax [6]	combination Emax [7]	combination Emax [8]	combination Emax [9]	combination Emax [10]	combination Emax [11]	combination Emax [12]	combination Emax [13]	combination Emax [14]	combination Emax [15]	combination Emax [16]	combination Emax [17]	combination Emax [18]
CC1(C)CCC(CN2CCN(c3ccc(C(=O)NS(=O)(=O)c4ccc(NCC5CCOCC5)c([N+](=O)[O-])c4)c(Oc4cnc5[nH]ccc5c4)c3)CC2)=C(c2ccc(Cl)cc2)C1 [Venetoclax] + C1CN(CCC1(C(=O)N[C@@H](CCO)C2=CC=C(C=C2)Cl)N)C3=NC=NC4=C3C=CN4 [Capivasertib] (first compound max 1 µM, 7x7, partner max 3 µM)	0.239	0.331	0.379	0.273	0.239	0.244	0.309	0.232	0.731	0.355	0.919	0.896	0.162	0.197	0.271	0.34	0.0823	0.416	0.646	1
COc1nnc2ccc(N3CCC(c4ccc(OCCN5CCN(C)C(=O)[C@H]5C)cc4)CC3)nn12 [AZD5153] + C=CCn1c(=O)c2cnc(Nc3ccc(N4CCN(C)CC4)cc3)nc2n1-c1cccc(C(C)(C)O)n1 [AZD1775] (first compound max 1 µM, partner max 1 µM)	0.497	0.658	0.391	0.583	0.677	0.433	0.788	0.53	0.945	0.685	0.983	0.97	0.502	0.686	0.592	0.787	0.634	0.642	0.655	0.996
CC(=O)c1c(C)c2cnc(Nc3ccc(N4CCNCC4)cn3)nc2n(C2CCCC2)c1=O [Palbociclib] + Cn1cnc2c(F)c(Nc3ccc(Br)cc3Cl)c(C(=O)NOCCO)cc21 [Selumetinib] (first compound max 10 µM, 7x7, partner max 10 µM)	0.262	0.5	0.169	0.22	0.295	0.139	0.851	0.443	0.855	0.38	0.858	0.475	0.416	0.547	0.437	0.137	0.349	0.296	0.665	0.834
CC(=O)c1c(C)c2cnc(Nc3ccc(N4CCNCC4)cn3)nc2n(C2CCCC2)c1=O [Palbociclib] + CC1(C)CCC(CN2CCN(c3ccc(C(=O)NS(=O)(=O)c4ccc(NCC5CCOCC5)c([N+](=O)[O-])c4)c(Oc4cnc5[nH]ccc5c4)c3)CC2)=C(c2ccc(Cl)cc2)C1 [Venetoclax] (first compound max 10 µM, 7x7, partner max 1 µM)	0.223	0.126	0.165	0.168	0.129	0.0554	0.559	0.227	0.484	0.361	0.596	0.364	0.245	0.476	0.147	0.108	0	0.424	0.382	0.98
Cc1c2c(nn1C)CSCc1cc(n(C)n1)CSc1cc(c3ccccc3c1)OCCCc1c(C(=O)O)n(C)c3c-2c(Cl)ccc13 [AZD5991] + C=CCn1c(=O)c2cnc(Nc3ccc(N4CCN(C)CC4)cc3)nc2n1-c1cccc(C(C)(C)O)n1 [AZD1775] (first compound max 1 µM, partner max 1 µM)	0.417	0.758	0.71	0.401	0.797	0.657	0.641	0.326	0.927	0.84	0.989	0.99	0.31	0.541	0.431	0.613	0.696	0.733	0.714	1
CC1(C)CCC(CN2CCN(c3ccc(C(=O)NS(=O)(=O)c4ccc(NCC5CCOCC5)c([N+](=O)[O-])c4)c(Oc4cnc5[nH]ccc5c4)c3)CC2)=C(c2ccc(Cl)cc2)C1 [Venetoclax] + Cc1cc2ncnn2cc1Nc1ncc2c(n1)n(C1CCOCC1)c(=O)n2C [AZD7648] (first compound max 1 µM, 7x7, partner max 10 µM)	0.178	0.247	0.25	0.292	0.253	0.165	0.259	0.212	0.737	0.302	0.922	0.856	0.236	0.205	0.307	0.221	0.0976	0.131	0.459	0.442
